In PubChem BioAssay AID2060497 (Molecular Pharmacology Branch, DTP, NCI, 2025):

Test system: 317291-083-R-J1-PDC complex spheroids, viability
Assay: Anticancer human tumor 317291-083-R-J1-PDC patient-derived soft tissue sarcoma cell line growth inhibition [GQUAD]
Settings: for IC50: curve of first compound; for viability, T/C: stronger effect = lower value
Method in brief: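 Viability of tumor cells grown as complex spheroids with endothelial and stromal cells, exposed to drug combinations. Top concentration at or near clinical Cmax (else 10 microM), diluted in half-log increments.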

[1] = second compound 0.0316 µM, first compound 0.0316 µM
[2] = second compound 0.0316 µM, first compound 0.316 µM
[3] = second compound 0.1 µM, first compound 0.0316 µM
[4] = second compound 0.1 µM, first compound 0.316 µM
[5] = second compound 0.316 µM, first compound 0.0316 µM
[6] = second compound 0.316 µM, first compound 0.316 µM
[7] = second compound 1 µM, first compound 0.0316 µM
[8] = second compound 1 µM, first compound 0.316 µM
[9] = second compound 3.16 µM, first compound 0.0316 µM
[10] = second compound 3.16 µM, first compound 0.316 µM
[11] = second compound 10 µM, first compound 0.0316 µM
[12] = second compound 10 µM, first compound 0.316 µM
[13] = second compound 0.0316 µM, first compound 0.000999 µM
[14] = second compound 0.0316 µM, first compound 0.00316 µM
[15] = second compound 0.0316 µM, first compound 0.00999 µM
[16] = second compound 0.0316 µM, first compound 0.0999 µM
[17] = second compound 0.1 µM, first compound 0.000999 µM
[18] = second compound 0.1 µM, first compound 0.00316 µM
[19] = second compound 0.1 µM, first compound 0.00999 µM
[20] = second compound 0.1 µM, first compound 0.0999 µM
[21] = second compound 0.316 µM, first compound 0.000999 µM
[22] = second compound 0.316 µM, first compound 0.00316 µM
[23] = second compound 0.316 µM, first compound 0.00999 µM
[24] = second compound 0.316 µM, first compound 0.0999 µM
[25] = second compound 1 µM, first compound 0.000999 µM
[26] = second compound 1 µM, first compound 0.00316 µM
[27] = second compound 1 µM, first compound 0.00999 µM
[28] = second compound 1 µM, first compound 0.0999 µM
[29] = second compound 3.16 µM, first compound 0.000999 µM
[30] = second compound 3.16 µM, first compound 0.00316 µM
[31] = second compound 3.16 µM, first compound 0.00999 µM
[32] = second compound 3.16 µM, first compound 0.0999 µM
[33] = second compound 10 µM, first compound 0.000999 µM
[34] = second compound 10 µM, first compound 0.00316 µM
[35] = second compound 10 µM, first compound 0.00999 µM
[36] = second compound 10 µM, first compound 0.0999 µM
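Note: spheroids exposed to compounds for one week before readout.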
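Throughout, for viability, T/C: percent viability relative to DMSO vehicle wells taken as 100%.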

**Q.** What does the source list for `CCCS(=O)(=O)Nc1ccc(F)c(C(=O)c2c[nH]c3ncc(-c4ccc(Cl)cc4)cc23)c1F` + Cc1cnc(CNC(=O)c2c(=O)c3ccc(N4CCCN(C)CC4)nc3n3c2sc2ccccc23)cn1?
**A.** IC50 (second compound 0.0316 µM): 4020 nM; IC50 (second compound 0.1 µM): 3920 nM; IC50 (second compound 0.316 µM): 179 nM; IC50 (second compound 1 µM): < 31.6 nM; IC50 (second compound 3.16 µM): < 31.6 nM; IC50 (second compound 10 µM): < 31.6 nM; viability, T/C [1]: 89.2%; viability, T/C (second compound 0.0316 µM, first compound 0.1 µM): 100%; viability, T/C [2]: 99.8%; viability, T/C (second compound 0.0316 µM, first compound 1 µM): 91.3%; viability, T/C (second compound 0.0316 µM, first compound 3.16 µM): 60.6%; viability, T/C (second compound 0.0316 µM, first compound 10 µM): 9.94%; viability, T/C [3]: 64.3%; viability, T/C (second compound 0.1 µM, first compound 0.1 µM): 56.2%; viability, T/C [4]: 67.1%; viability, T/C (second compound 0.1 µM, first compound 1 µM): 49.9%; viability, T/C (second compound 0.1 µM, first compound 3.16 µM): 59.4%; viability, T/C (second compound 0.1 µM, first compound 10 µM): 9.77%; viability, T/C [5]: 43%; viability, T/C (second compound 0.316 µM, first compound 0.1 µM): 68.4%; viability, T/C [6]: 43.6%; viability, T/C (second compound 0.316 µM, first compound 1 µM): 38.1%; viability, T/C (second compound 0.316 µM, first compound 3.16 µM): 37.5%; viability, T/C (second compound 0.316 µM, first compound 10 µM): 16.5%; viability, T/C [7]: 55.6%; viability, T/C (second compound 1 µM, first compound 0.1 µM): 23.6%; viability, T/C [8]: 43.1%; viability, T/C (second compound 1 µM, first compound 1 µM): 18.8%; viability, T/C (second compound 1 µM, first compound 3.16 µM): 19.7%; viability, T/C (second compound 1 µM, first compound 10 µM): 5.79%; viability, T/C [9]: 10.6%; viability, T/C (second compound 3.16 µM, first compound 0.1 µM): 11.7%; viability, T/C [10]: 10.6%; viability, T/C (second compound 3.16 µM, first compound 1 µM): 11.8%; viability, T/C (second compound 3.16 µM, first compound 3.16 µM): 21.4%; viability, T/C (second compound 3.16 µM, first compound 10 µM): 0.18%; viability, T/C [11]: 10.2%; viability, T/C (second compound 10 µM, first compound 0.1 µM): 6.4%; viability, T/C [12]: 24.3%; viability, T/C (second compound 10 µM, first compound 1 µM): 8.2%; viability, T/C (second compound 10 µM, first compound 3.16 µM): 16.7%; viability, T/C (second compound 10 µM, first compound 10 µM): 8.36%

**Q.** `Cc1[nH]c2ccccc2c1CCNCc1ccc(/C=C/C(=O)NO)cc1` + CN(C)c1ccc(Nc2c3ccc(NC(=O)CCN4CCCC4)cc3nc3cc(NC(=O)CCN4CCCC4)ccc23)cc1 was tested. Which IC50 (second compound 0.0316 µM) did it give?
**A.** 40 nM

**Q.** And the IC50 (second compound 0.1 µM)?
**A.** 35.1 nM

**Q.** What about the IC50 (second compound 0.316 µM) of the same compound?
**A.** 19.7 nM

**Q.** What about the IC50 (second compound 1 µM) of the same compound?
**A.** < 0.999 nM

**Q.** What about the IC50 (second compound 3.16 µM) of the same compound?
**A.** < 0.999 nM

**Q.** What about the IC50 (second compound 10 µM) of the same compound?
**A.** < 0.999 nM

**Q.** And the viability, T/C [13]?
**A.** 104%

**Q.** What about the viability, T/C [14] of the same compound?
**A.** 121%

**Q.** And the viability, T/C [15]?
**A.** 101%

**Q.** And the viability, T/C [1]?
**A.** 61.3%

**Q.** What about the viability, T/C [16] of the same compound?
**A.** 8.25%

**Q.** And the viability, T/C [2]?
**A.** 0.39%

**Q.** And the viability, T/C [17]?
**A.** 119%

**Q.** What about the viability, T/C [18] of the same compound?
**A.** 102%

**Q.** And the viability, T/C [19]?
**A.** 95.4%

**Q.** And the viability, T/C [3]?
**A.** 56.6%

**Q.** What about the viability, T/C [20] of the same compound?
**A.** 7.42%

**Q.** And the viability, T/C [4]?
**A.** 0.13%

**Q.** What about the viability, T/C [21] of the same compound?
**A.** 79.9%

**Q.** And the viability, T/C [22]?
**A.** 75.7%

**Q.** And the viability, T/C [23]?
**A.** 74.9%

**Q.** What about the viability, T/C [5] of the same compound?
**A.** 33.1%

**Q.** What about the viability, T/C [24] of the same compound?
**A.** 5.76%

**Q.** And the viability, T/C [6]?
**A.** 0.14%

**Q.** And the viability, T/C [25]?
**A.** 48.6%

**Q.** And the viability, T/C [26]?
**A.** 30.2%

**Q.** And the viability, T/C [27]?
**A.** 33.6%

**Q.** What about the viability, T/C [7] of the same compound?
**A.** 15.8%

**Q.** And the viability, T/C [28]?
**A.** 2.82%

**Q.** And the viability, T/C [8]?
**A.** 0.27%

**Q.** What about the viability, T/C [29] of the same compound?
**A.** 6.7%

**Q.** What about the viability, T/C [30] of the same compound?
**A.** 4.52%

**Q.** What about the viability, T/C [31] of the same compound?
**A.** 7.77%

**Q.** And the viability, T/C [9]?
**A.** 1.86%

**Q.** What about the viability, T/C [32] of the same compound?
**A.** 0.59%

**Q.** And the viability, T/C [10]?
**A.** 0.18%

**Q.** And the viability, T/C [33]?
**A.** 0.17%

**Q.** What about the viability, T/C [34] of the same compound?
**A.** 0.22%

**Q.** What about the viability, T/C [35] of the same compound?
**A.** 0.54%

**Q.** And the viability, T/C [11]?
**A.** 2%

**Q.** What about the viability, T/C [36] of the same compound?
**A.** 0.38%

**Q.** And the viability, T/C [12]?
**A.** 0.28%

**Q.** Which IC50 (second compound 0.0316 µM) does the source give for `CCc1c2c(nc3ccc(O)cc13)-c1cc3c(c(=O)n1C2)COC(=O)[C@]3(O)CC` + Cc1cnc(CNC(=O)c2c(=O)c3ccc(N4CCCN(C)CC4)nc3n3c2sc2ccccc23)cn1 here?
**A.** < 0.999 nM

**Q.** What about the IC50 (second compound 0.1 µM) of the same compound?
**A.** < 0.999 nM

**Q.** What about the IC50 (second compound 0.316 µM) of the same compound?
**A.** < 0.999 nM

**Q.** What about the IC50 (second compound 1 µM) of the same compound?
**A.** < 0.999 nM

**Q.** And the IC50 (second compound 3.16 µM)?
**A.** < 0.999 nM

**Q.** And the IC50 (second compound 10 µM)?
**A.** < 0.999 nM

**Q.** And the viability, T/C [13]?
**A.** 39.3%

**Q.** What about the viability, T/C [14] of the same compound?
**A.** 18%

**Q.** And the viability, T/C [15]?
**A.** 10.7%

**Q.** What about the viability, T/C [1] of the same compound?
**A.** 7.46%

**Q.** What about the viability, T/C [16] of the same compound?
**A.** 9.54%

**Q.** What about the viability, T/C [2] of the same compound?
**A.** 5.6%

**Q.** And the viability, T/C [17]?
**A.** 33.9%

**Q.** And the viability, T/C [18]?
**A.** 16%

**Q.** What about the viability, T/C [19] of the same compound?
**A.** 11.3%

**Q.** What about the viability, T/C [3] of the same compound?
**A.** 13.6%

**Q.** And the viability, T/C [20]?
**A.** 5.29%

**Q.** What about the viability, T/C [4] of the same compound?
**A.** 3.08%

**Q.** What about the viability, T/C [21] of the same compound?
**A.** 20.6%

**Q.** What about the viability, T/C [22] of the same compound?
**A.** 21.5%

**Q.** What about the viability, T/C [23] of the same compound?
**A.** 15.5%

**Q.** What about the viability, T/C [5] of the same compound?
**A.** 9.82%

**Q.** And the viability, T/C [24]?
**A.** 7.3%

**Q.** And the viability, T/C [6]?
**A.** 2.31%

**Q.** What about the viability, T/C [25] of the same compound?
**A.** 21.9%

**Q.** What about the viability, T/C [26] of the same compound?
**A.** 25.9%

**Q.** And the viability, T/C [27]?
**A.** 11.1%

**Q.** And the viability, T/C [7]?
**A.** 9.26%

**Q.** And the viability, T/C [28]?
**A.** 12.2%

**Q.** What about the viability, T/C [8] of the same compound?
**A.** 1.09%

**Q.** And the viability, T/C [29]?
**A.** 26.1%

**Q.** What about the viability, T/C [30] of the same compound?
**A.** 14.9%

**Q.** And the viability, T/C [31]?
**A.** 9.17%

**Q.** What about the viability, T/C [9] of the same compound?
**A.** 2.26%

**Q.** And the viability, T/C [32]?
**A.** 2.54%

**Q.** And the viability, T/C [10]?
**A.** 0.17%

**Q.** What about the viability, T/C [33] of the same compound?
**A.** 15.2%

**Q.** And the viability, T/C [34]?
**A.** 7.77%

**Q.** What about the viability, T/C [35] of the same compound?
**A.** 8.64%

**Q.** And the viability, T/C [11]?
**A.** 8.52%

**Q.** And the viability, T/C [36]?
**A.** 6.98%

**Q.** What about the viability, T/C [12] of the same compound?
**A.** 0.18%
